Data: patent publication US10525055B2, “Opioid receptor antagonist prodrugs” (Nirsum Laboratories, Inc., priority 2017, dated 2020)

Key:
[1] = biological target: T1, DOR (Homo sapiens, UniProt P41143); assay: Opioid receptor binding assay, DOR ([3H]-DADLE); settings: for %Inh@MaxDose: DOR
T1 construct: expressed in transfected cells; membranes prepared from them

[2] = biological target: T2, KOR (Homo sapiens, UniProt P41145); assay: Opioid receptor binding assay, KOR ([3H]Diprenorphine); settings: KOR
T2 construct: expressed in transfected cells; membranes prepared from them
T2 sequence (P41145 whole entry): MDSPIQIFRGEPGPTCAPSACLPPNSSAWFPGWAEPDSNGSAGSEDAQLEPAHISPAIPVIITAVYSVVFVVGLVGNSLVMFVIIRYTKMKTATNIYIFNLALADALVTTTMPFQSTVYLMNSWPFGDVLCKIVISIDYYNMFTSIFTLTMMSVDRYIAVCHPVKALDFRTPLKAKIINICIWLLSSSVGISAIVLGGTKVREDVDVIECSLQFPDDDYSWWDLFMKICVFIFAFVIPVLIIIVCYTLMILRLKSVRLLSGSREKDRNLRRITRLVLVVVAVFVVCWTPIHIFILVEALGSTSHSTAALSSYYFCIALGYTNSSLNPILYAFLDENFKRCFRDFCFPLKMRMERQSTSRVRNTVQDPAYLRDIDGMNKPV

[3] = biological target: T3, MOR (Homo sapiens, UniProt P35372); assay: Opioid receptor binding assay, MOR ([3H]DAMGO); settings: MOR
T3 construct: expressed in transfected cells; membranes prepared from them
T3 sequence (P35372 whole entry): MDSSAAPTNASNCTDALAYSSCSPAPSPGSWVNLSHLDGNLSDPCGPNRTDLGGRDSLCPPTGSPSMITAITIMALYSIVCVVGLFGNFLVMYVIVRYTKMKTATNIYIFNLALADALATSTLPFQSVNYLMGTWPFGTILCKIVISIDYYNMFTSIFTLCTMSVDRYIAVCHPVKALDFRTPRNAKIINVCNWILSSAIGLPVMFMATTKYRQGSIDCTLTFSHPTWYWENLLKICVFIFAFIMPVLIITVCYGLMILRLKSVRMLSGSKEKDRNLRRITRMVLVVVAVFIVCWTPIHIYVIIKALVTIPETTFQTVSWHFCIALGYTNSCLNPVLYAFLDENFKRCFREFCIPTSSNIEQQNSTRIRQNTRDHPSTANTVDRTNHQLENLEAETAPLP

[4] = Plasma stability assay, rat plasma; type: in vitro ADME; settings: 37° C., 10 μM
Procedure: Plasma stability determination of the test compounds in rat, dog, cynomolgus monkey and human plasma is performed using HPLC-MS. For rat, incubations are carried out in 96-well polypropylene plates in 5 aliquots of 70 μL each (one for each time point). […] Five time points are analyzed (0, 15, 120, 480 and 1440 min). For dog, monkey and human, test compounds (2 μM, final solvent concentration 1%) were also incubated at 37° C. and analyzed at five time points (0, 10, 30, 60 and 120 min). All incubations are performed in duplicates. The samples are analyzed by HPLC-MS. The percentage of parent compound remaining after incubation in plasma is determined.

[5] = Solubility determination in oil (cottonseed oil, sesame oil); settings: Sesame oil; for Solubility by volumetric flask method: Sesame oil: heating 60 °C, obs. 25 °C
Procedure: A known amount of test substance (˜40 mg) was weighed into the vial, 100 μL of oil was added and heated to 60° C. and then system was slurried to reach equilibrium. […] Extra oil was added into the vial once compound precipitated out and then the system was re-equilibrated at 1000 rpm at room temperature (25° C.). Final concentration was determined by HPLC method as described below in Table 6a and 6b.

[6] = Dog pharmacokinetic studies, deep intramuscular; type: in vivo, Beagle dogs; settings: dog IM, 48 mg/kg, Sesame oil + 1% Benzyl Alcohol
Procedure: The purpose of this study is to determine the pharmacokinetics of test compounds in plasma, following deep intramuscular administration to Beagle dogs (n=3, unless otherwise specified).
(§1) The dose formulation (concentration−400 mg base equivalents/ml in sesame oil+1% benzyl alcohol, unless otherwise specified) was administered via deep intramuscularly (unless otherwise specified). The injection vehicle was also dosed via deep intramuscular route (unless otherwise specified) on contralateral site of each animal at study initiation. The animals were sedated with Propofol at 6 mg/kg via IV administration. Following sedation hair was carefully removed from around the injection site and the area gently cleaned. Care will be taken to avoid irritating skin during shaving and cleaning the injection site. Then dogs will be dosed with deep IM administration. At least 2.5 cm depth from the surface into the central aspect of the quadriceps or biceps femoris muscle, by angling the needle toward the femur. If the needle hits the femur, simply draws back slightly and then inject. The dose volume will be determined by the animals' body weight collected on the morning of dosing day. For repeated administration, the injection sites may be rotated to minimize tissue injury.
Blood samples were collected from a peripheral vessel from restrained, non-sedated animals per sampling time point.
Approximately 0.8 mL blood will be collected at each time point.
Each collected blood sample was centrifuged for 4 minutes at 4° C. and 10000 rpm for plasma collection. Plasma was collected and transferred into a pre-labeled PP tube in dry ice at each time point and precipitated immediately using ACN at a ratio of 1:4 (plasma:ACN). Centrifuged again (10 minutes, 12000 rpm) and obtain the supernatant.
After terminal collection, all supernatant was stored at approximately −80° C. F until bioanalysis.
LC-MS/MS methods for the quantitative determination of test compound in biological matrix were developed. […] The sample analysis was performed concurrently with a set of calibration standards and two sets of QC samples using the LC-MS/MS method.
Plasma concentration versus time data was analyzed by non-compartmental approaches using the Phoenix WinNonlin 6.3 software program. Cmax, Tmax, T1/2, AUC(0-t), AUC(0-inf), MRT(0-t), MRT(0-inf) and graphs of plasma concentration versus time profile were prepared.

[7] = Dog clinical observations after intramuscular dosing; type: in vivo, Beagle dogs
Procedure: Weight monitoring was done every week.
as §1

T1 sequence (P41143 whole entry): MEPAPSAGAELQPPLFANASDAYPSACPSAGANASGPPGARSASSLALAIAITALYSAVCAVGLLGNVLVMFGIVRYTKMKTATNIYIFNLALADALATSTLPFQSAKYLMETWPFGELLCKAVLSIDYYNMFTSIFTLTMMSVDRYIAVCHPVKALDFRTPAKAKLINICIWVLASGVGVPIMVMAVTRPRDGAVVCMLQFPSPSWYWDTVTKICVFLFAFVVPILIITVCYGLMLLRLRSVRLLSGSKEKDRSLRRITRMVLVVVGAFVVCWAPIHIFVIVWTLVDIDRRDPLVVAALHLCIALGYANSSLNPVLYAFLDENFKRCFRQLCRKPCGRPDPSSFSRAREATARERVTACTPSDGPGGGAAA

For `C=C1CC[C@@]2(O)[C@H]3Cc4ccc(O)c5c4[C@@]2(CCN3CC2CC2)[C@H]1O5` [nalmefene, 17-cyclopropylmethyl-4,5α-epoxy-6-methylenemorphinan-3,14-diol, reference compound], the “%Inh@MaxDose” value ([1]; MaxDose 1000 nM) was 94.5%, the “%Inh@MaxDose” value ([2]; MaxDose 1000 nM) was 103% and the “%Inh@MaxDose” value ([3]; MaxDose 1000 nM) was 103.5%.

For `C=C1CC[C@@]2(O)C3Cc4ccc(OCOC(=O)OCCCCCCCCCCCCCC)c5c4[C@@]2(CCN3CC2CC2)[C@H]1O5` [Compound 25, (((4aS,7aS,12bS)-3-(cyclopropylmethyl)-4a-hydroxy-7-methylene-2,3,4,4a,5,6,7,7a-octahydro-1H-4,12-methanobenzofuro[3,2-e]isoquinolin-9-yl)oxy)methyl tetradecyl carbonate], the “% remaining at time point in minutes, 0 min” value ([4]; 0 min) was 100%, the “% remaining at time point in minutes, 15 min” value ([4]; 15 min) was 82.6% and the “% remaining at time point in minutes, 120 min” value ([4]; 120 min) was 69.3%. For the same compound, the “% remaining at time point in minutes, 480 min” value ([4]; 480 min) was 62.2%, the “% remaining at time point in minutes, 1440 min” value ([4]; 1440 min) was 51.7% and the “%Inh@MaxDose” value ([1]; MaxDose 10000 nM) was 62%. The “%Inh@MaxDose” value ([2]; MaxDose 10000 nM) was 76.9% and the “%Inh@MaxDose” value ([3]; MaxDose 10000 nM) was 87.3%.

In the case of `C=C1CC[C@@]2(O)C3Cc4ccc(OC(=O)OCCCCCCCCCCCCCCC)c5c4[C@@]2(CCN3CC2CC2)[C@H]1O5` [Compound 32, (4aS,7aS,12bS)-3-(cyclopropylmethyl)-4a-hydroxy-7-methylene-2,3,4,4a,5,6,7,7a-octahydro-1H-4,12-methanobenzofuro[3,2-e]isoquinolin-9-yl pentadecyl carbonate], the “%Inh@MaxDose” value ([2]; MaxDose 10000 nM) is reported as 80.1%, the “%Inh@MaxDose” value ([3]; MaxDose 10000 nM) is reported as 75.9% and the “Approximate Solubility (mg/mL) in Excipient: Sesame oil” value ([5]; heating temp. 60 °C, obs. temp. 25 °C) is reported as >410 mg/mL.

For `C=C1CC[C@@]2(O)C3Cc4ccc(OCOC(=O)CCCCCCCCCCCCCCC)c5c4[C@@]2(CCN3CC2CC2)[C@H]1O5` [Compound 46, (((4aS,7aS,12bS)-3-(cyclopropylmethyl)-4a-hydroxy-7-methylene-2,3,4,4a,5,6,7,7a-octahydro-1H-4,12-methanobenzofuro[3,2-e]isoquinolin-9-yl)oxy)methyl hexadecanoate], the “%Inh@MaxDose” value ([1]; MaxDose 10000 nM) was 72.3%, the “%Inh@MaxDose” value ([2]; MaxDose 10000 nM) was 101.8% and the “%Inh@MaxDose” value ([3]; MaxDose 10000 nM) was 102.3%.

With `C=C1CC[C@@]2(O)C3Cc4ccc(OCOC(=O)CCCCCCCCCCC)c5c4[C@@]2(CCN3CC2CC2)[C@H]1O5` [Compound 44, (((4aS,7aS,12bS)-3-(cyclopropylmethyl)-4a-hydroxy-7-methylene-2,3,4,4a,5,6,7,7a-octahydro-1H-4,12-methanobenzofuro[3,2-e]isoquinolin-9-yl)oxy)methyl dodecanoate] the “%Inh@MaxDose” value ([1]; MaxDose 10000 nM) was 79.1%, the “%Inh@MaxDose” value ([2]; MaxDose 10000 nM) was 99.2% and the “%Inh@MaxDose” value ([3]; MaxDose 10000 nM) was 83.1%.

With `C=C1CC[C@@]2(O)C3Cc4ccc(OCOC(=O)OCCCCCCCCCCC)c5c4[C@@]2(CCN3CC2CC2)[C@H]1O5` [Compound 5, (((4aS,7aS,12bS)-3-(cyclopropylmethyl)-4a-hydroxy-7-methylene-2,3,4,4a,5,6,7,7a-octahydro-1H-4,12-methanobenzofuro[3,2-e]isoquinolin-9-yl)oxy)methyl undecyl carbonate] the “Solubility by volumetric flask method: Sesame oil” value [5] was >400.6 mg/mL, the “AUC0-inf (ng · h/mL) prodrug” value [6] was 3869 ng·h/mL and the “Half-life t1/2 (hour) prodrug” value [6] was 70.9 h. For the same compound, the “BT (clinical observations, R-TA)” value ([7]; dog D1001, 48 mg/kg, 264 hr) was “BT:38.6 °C”, the “BT (clinical observations, R-TA)” value ([7]; dog D1001, 48 mg/kg, 288 hr) was “BT:38.6 °C” and the “BT (clinical observations, R-TA)” value ([7]; dog D1001, 48 mg/kg, 312 hr) was “BT:38.0 °C”. For the same compound, the “BT (clinical observations, R-TA)” value ([7]; dog D1001, 48 mg/kg, 336 hr) was “BT:38.4 °C”, the “BT (clinical observations, R-TA)” value ([7]; dog D1001, 48 mg/kg, 360 hr) was “BT:38.1 °C” and the “BT (clinical observations, R-TA)” value ([7]; dog D1001, 48 mg/kg, 432 hr) was “BT:38.0 °C”. The “BT (clinical observations, R-TA)” value ([7]; dog D1001, 48 mg/kg, 480 hr) was “BT:38.0 °C”, the “BT (clinical observations, R-TA)” value ([7]; dog D1001, 48 mg/kg, 528 hr) was “BT38.2 °C” and the “BT (clinical observations, R-TA)” value ([7]; dog D1001, 48 mg/kg, 552 hr) was “BT:38.4 °C”. The “BT (clinical observations, R-TA)” value ([7]; dog D1001, 48 mg/kg, 576 hr) was “BT:38.4 °C”, the “BT (clinical observations, R-TA)” value ([7]; dog D1001, 48 mg/kg, 600 hr) was “BT:38.3 °C” and the “BT (clinical observations, R-TA)” value ([7]; dog D1001, 48 mg/kg, 624 hr) was “BT:38.6 °C”. For the same compound, the “BT (clinical observations, R-TA)” value ([7]; dog D1001, 48 mg/kg, 648 hr) was “BT:38.3 °C”, the “BT (clinical observations, R-TA)” value ([7]; dog D1001, 48 mg/kg, 672 hr) was “BT:38.3 °C” and the “BT (clinical observations, R-TA)” value ([7]; dog D1001, 48 mg/kg, […]) was “BT:38.7 °C”. The “BT (clinical observations, R-TA)” value ([7]; dog D1002, 48 mg/kg, 264 hr) was “BT:39.5 °C”, the “BT (clinical observations, R-TA)” value ([7]; dog D1002, 48 mg/kg, 288 hr) was “BT:39.5 °C” and the “BT (clinical observations, R-TA)” value ([7]; dog D1002, 48 mg/kg, 312 hr) was “BT:38.5 °C”. For the same compound, the “BT (clinical observations, R-TA)” value ([7]; dog D1002, 48 mg/kg, 336 hr) was “BT:38.7 °C”, the “BT (clinical observations, R-TA)” value ([7]; dog D1002, 48 mg/kg, 360 hr) was “BT:39.1 °C” and the “BT (clinical observations, R-TA)” value ([7]; dog D1002, 48 mg/kg, 432 hr) was “BT:38.9 °C”. The “BT (clinical observations, R-TA)” value ([7]; dog D1002, 48 mg/kg, 456 hr) was “BT:38.9 °C”, the “BT (clinical observations, R-TA)” value ([7]; dog D1002, 48 mg/kg, 480 hr) was “BT:39.2 °C” and the “BT (clinical observations, R-TA)” value ([7]; dog D1002, 48 mg/kg, 504 hr) was “BT:38.7 °C”. For the same compound, the “BT (clinical observations, R-TA)” value ([7]; dog D1002, 48 mg/kg, 528 hr) was “BT:37.9 °C”, the “BT (clinical observations, R-TA)” value ([7]; dog D1002, 48 mg/kg, 552 hr) was “BT:39.2 °C” and the “BT (clinical observations, R-TA)” value ([7]; dog D1002, 48 mg/kg, 576 hr) was “BT:39.0 °C”. For the same compound, the “BT (clinical observations, R-TA)” value ([7]; dog D1002, 48 mg/kg, 600 hr) was “BT:38.6 °C”, the “BT (clinical observations, R-TA)” value ([7]; dog D1002, 48 mg/kg, 624 hr) was “BT:38.9 °C” and the “BT (clinical observations, R-TA)” value ([7]; dog D1002, 48 mg/kg, 648 hr) was “BT:38.5 °C”. The “BT (clinical observations, R-TA)” value ([7]; dog D1002, 48 mg/kg, 672 hr) was “BT:39.3 °C”.

In the case of `CCCCCCCCCCCOC(=O)OCOc1ccc2c3c1O[C@H]1C(=O)CC[C@@]4(O)C(C2)N(CC2CC2)CC[C@]314` [Compound 4, (((4aS,7aR,12bS)-3-(cyclopropylmethyl)-4a-hydroxy-7-oxo-2,3,4,4a,5,6,7,7a-octahydro-1H-4,12-methanobenzofuro[3,2-e]isoquinolin-9-yl)oxy)methyl undecyl carbonate], the IC50 [1] is reported as > 10 µM, the “%Inh@MaxDose” value ([1]; MaxDose 10000 nM) is reported as 43.2% and the “Solubility by volumetric flask method: Sesame oil” value [5] is reported as >400.4 mg/mL. For the same compound, the “AUC0-inf (ng · h/mL) prodrug” value [6] was 829 ng·h/mL.

For `C=C1CC[C@@]2(O)C3Cc4ccc(OCOC(=O)OCCCCCCCCCCCCCCCC)c5c4[C@@]2(CCN3CC2CC2)[C@H]1O5` [Compound 34, (((4aS,7aS,12bS)-3-(cyclopropylmethyl)-4a-hydroxy-7-methylene-2,3,4,4a,5,6,7,7a-octahydro-1H-4,12-methanobenzofuro[3,2-e]isoquinolin-9-yl)oxy)methyl hexadecyl carbonate], the “%Inh@MaxDose” value ([1]; MaxDose 10000 nM) was 22.7%.

For `Oc1ccc2c3c1O[C@H]1c4[nH]c5ccccc5c4C[C@@]4(O)[C@@H](C2)N(CC2CC2)CC[C@]314` [Naltrindole, reference compound], the “%Inh@MaxDose” value ([1]; MaxDose 100 nM) was 98.8%.
